In the NIST ThermoML archive (doi:10.1021/je300017m):
Several values for one entry are separate records, joined by “and”; a condition that tells them apart may be missing. Identical values can stand only once.

Tests used:
[1] = mn = molality of the nth substance listed, in mol/kg; conditions: 101 kPa, Liquid
[2] = 101 kPa, Liquid

CCCCCCCCn1cc[n+](C)c1.[Br-] [1-methyl-3-octylimidazolium bromide] + C[S+](C)[O-]
[1]
Conditions | mass density [kg/m3]
293.15 K, m1 = 0.00222 | 1100.28
293.15 K, m1 = 0.00411 | 1100.33
293.15 K, m1 = 0.00639 | 1100.39
293.15 K, m1 = 0.00868 | 1100.45
293.15 K, m1 = 0.01098 | 1100.51
293.15 K, m1 = 0.01287 | 1100.56
293.15 K, m1 = 0.0156 | 1100.63
293.15 K, m1 = 0.01754 | 1100.68
293.15 K, m1 = 0.01986 | 1100.74
293.15 K, m1 = 0.0222 | 1100.8
303.15 K, m1 = 0.00254 | 1090.41
303.15 K, m1 = 0.00588 | 1090.5
303.15 K, m1 = 0.00888 | 1090.58
303.15 K, m1 = 0.01151 | 1090.65
303.15 K, m1 = 0.01491 | 1090.74
303.15 K, m1 = 0.01758 | 1090.81
303.15 K, m1 = 0.02064 | 1090.89
303.15 K, m1 = 0.02333 | 1090.96
303.15 K, m1 = 0.02681 | 1091.05
303.15 K, m1 = 0.03031 | 1091.14
308.15 K, m1 = 0.00216 | 1085.43
308.15 K, m1 = 0.00471 | 1085.5
308.15 K, m1 = 0.00692 | 1085.56
308.15 K, m1 = 0.00913 | 1085.62
308.15 K, m1 = 0.01398 | 1085.75
308.15 K, m1 = 0.01624 | 1085.81
308.15 K, m1 = 0.01888 | 1085.88
308.15 K, m1 = 0.02155 | 1085.95
308.15 K, m1 = 0.02348 | 1086
308.15 K, m1 = 0.02616 | 1086.07
313.15 K, m1 = 0.00623 | 1080.57
313.15 K, m1 = 0.01004 | 1080.67
313.15 K, m1 = 0.01351 | 1080.76
313.15 K, m1 = 0.01667 | 1080.84
313.15 K, m1 = 0.01987 | 1080.92
313.15 K, m1 = 0.02275 | 1080.99
313.15 K, m1 = 0.02686 | 1081.09
313.15 K, m1 = 0.02946 | 1081.15
313.15 K, m1 = 0.03287 | 1081.23
313.15 K, m1 = 0.03631 | 1081.31

C[S+](C)[O-] [dimethyl sulfoxide] + CCCCn1cc[n+](C)c1.[Br-]
[1], m2 = 0
Conditions | mass density [kg/m3]
293.15 K | 1100.22
303.15 K | 1090.36
308.15 K | 1085.41
313.15 K | 1080.45

CCCCCCCCCCCCn1cc[n+](C)c1.[Br-] [1-dodecyl-3-methylimidazolium bromide] + C[S+](C)[O-]
[1]
Conditions | mass density [kg/m3]
293.15 K, m1 = 0.00397 | 1100.23
293.15 K, m1 = 0.00623 | 1100.24
293.15 K, m1 = 0.00818 | 1100.25
293.15 K, m1 = 0.01037 | 1100.26
293.15 K, m1 = 0.01216 | 1100.26
293.15 K, m1 = 0.01421 | 1100.27
293.15 K, m1 = 0.01656 | 1100.28
293.15 K, m1 = 0.01857 | 1100.29
293.15 K, m1 = 0.02122 | 1100.3
293.15 K, m1 = 0.02403 | 1100.31
303.15 K, m1 = 0.00371 | 1090.4
303.15 K, m1 = 0.00614 | 1090.4
303.15 K, m1 = 0.00792 | 1090.41
303.15 K, m1 = 0.00994 | 1090.42
303.15 K, m1 = 0.0118 | 1090.43
303.15 K, m1 = 0.01399 | 1090.44
303.15 K, m1 = 0.01604 | 1090.45
303.15 K, m1 = 0.01817 | 1090.46
303.15 K, m1 = 0.01986 | 1090.47
303.15 K, m1 = 0.02211 | 1090.48
308.15 K, m1 = 0.00436 | 1085.43
308.15 K, m1 = 0.00683 | 1085.43
308.15 K, m1 = 0.00903 | 1085.45
308.15 K, m1 = 0.01149 | 1085.46
308.15 K, m1 = 0.01349 | 1085.47
308.15 K, m1 = 0.01606 | 1085.48
308.15 K, m1 = 0.01812 | 1085.49
308.15 K, m1 = 0.02147 | 1085.51
308.15 K, m1 = 0.02348 | 1085.52
308.15 K, m1 = 0.02922 | 1085.55
313.15 K, m1 = 0.00453 | 1080.48
313.15 K, m1 = 0.00685 | 1080.5
313.15 K, m1 = 0.00907 | 1080.51
313.15 K, m1 = 0.01123 | 1080.52
313.15 K, m1 = 0.01315 | 1080.53
313.15 K, m1 = 0.01625 | 1080.55
313.15 K, m1 = 0.01812 | 1080.56
313.15 K, m1 = 0.02054 | 1080.57
313.15 K, m1 = 0.02269 | 1080.59

C[S+](C)[O-] [dimethyl sulfoxide] + CCCCCCCCn1cc[n+](C)c1.[Br-]
[1], m2 = 0
Conditions | mass density [kg/m3]
293.15 K | 1100.22
303.15 K | 1090.34
308.15 K | 1085.41
313.15 K | 1080.43

CCCCCCCCCCn1cc[n+](C)c1.[Br-] [1-decyl-3-methylimidazolium bromide] + C[S+](C)[O-]
[1]
Conditions | mass density [kg/m3]
293.15 K, m1 = 0.00402 | 1100.27
293.15 K, m1 = 0.00649 | 1100.3
293.15 K, m1 = 0.00933 | 1100.34
293.15 K, m1 = 0.01163 | 1100.38
293.15 K, m1 = 0.0141 | 1100.41
293.15 K, m1 = 0.0167 | 1100.45
293.15 K, m1 = 0.01877 | 1100.49
293.15 K, m1 = 0.02117 | 1100.53
293.15 K, m1 = 0.02341 | 1100.56
293.15 K, m1 = 0.02766 | 1100.63
303.15 K, m1 = 0.00542 | 1090.45
303.15 K, m1 = 0.00729 | 1090.48
303.15 K, m1 = 0.00969 | 1090.52
303.15 K, m1 = 0.01151 | 1090.55
303.15 K, m1 = 0.01339 | 1090.58
303.15 K, m1 = 0.01545 | 1090.61
303.15 K, m1 = 0.01741 | 1090.65
303.15 K, m1 = 0.01809 | 1090.66
303.15 K, m1 = 0.01996 | 1090.69
308.15 K, m1 = 0.00501 | 1085.49
308.15 K, m1 = 0.00676 | 1085.52
308.15 K, m1 = 0.01153 | 1085.59
308.15 K, m1 = 0.01415 | 1085.64
308.15 K, m1 = 0.01624 | 1085.68
308.15 K, m1 = 0.0184 | 1085.72
308.15 K, m1 = 0.02101 | 1085.76
308.15 K, m1 = 0.0233 | 1085.8
313.15 K, m1 = 0.00484 | 1080.52
313.15 K, m1 = 0.0071 | 1080.56
313.15 K, m1 = 0.00963 | 1080.6
313.15 K, m1 = 0.01229 | 1080.65
313.15 K, m1 = 0.01489 | 1080.69
313.15 K, m1 = 0.01739 | 1080.74
313.15 K, m1 = 0.0195 | 1080.78
313.15 K, m1 = 0.02205 | 1080.82
313.15 K, m1 = 0.02449 | 1080.87

C[S+](C)[O-] [dimethyl sulfoxide]
[2]
Conditions | mass density
293.15 K | 1100.22 kg/m3
303.15 K | 1090.37 kg/m3 [middle of 4 runs]
308.15 K | 1085.41 kg/m3 and 1085.42 kg/m3
313.15 K | 1080.45 kg/m3 and 1080.43 kg/m3 and 1080.47 kg/m3

CCCCn1cc[n+](C)c1.[Br-] [1-butyl-3-methylimidazolium bromide] + C[S+](C)[O-]
[1]
Conditions | mass density [kg/m3]
293.15 K, m1 = 0.00417 | 1100.42
293.15 K, m1 = 0.00643 | 1100.53
293.15 K, m1 = 0.00951 | 1100.68
293.15 K, m1 = 0.01236 | 1100.82
293.15 K, m1 = 0.015 | 1100.95
293.15 K, m1 = 0.01784 | 1101.09
293.15 K, m1 = 0.02066 | 1101.23
293.15 K, m1 = 0.02307 | 1101.35
293.15 K, m1 = 0.02628 | 1101.51
293.15 K, m1 = 0.02848 | 1101.62
303.15 K, m1 = 0.00497 | 1090.6
303.15 K, m1 = 0.00823 | 1090.76
303.15 K, m1 = 0.01126 | 1090.91
303.15 K, m1 = 0.01409 | 1091.05
303.15 K, m1 = 0.01689 | 1091.19
303.15 K, m1 = 0.02008 | 1091.35
303.15 K, m1 = 0.02326 | 1091.51
303.15 K, m1 = 0.02642 | 1091.67
303.15 K, m1 = 0.02917 | 1091.82
303.15 K, m1 = 0.03153 | 1091.94
308.15 K, m1 = 0.00514 | 1085.66
308.15 K, m1 = 0.00817 | 1085.81
308.15 K, m1 = 0.01139 | 1085.97
308.15 K, m1 = 0.01418 | 1086.11
308.15 K, m1 = 0.01696 | 1086.25
308.15 K, m1 = 0.01992 | 1086.41
308.15 K, m1 = 0.02347 | 1086.59
308.15 K, m1 = 0.0264 | 1086.74
308.15 K, m1 = 0.02914 | 1086.88
308.15 K, m1 = 0.03167 | 1087.01
313.15 K, m1 = 0.00489 | 1080.7
313.15 K, m1 = 0.00769 | 1080.83
313.15 K, m1 = 0.01069 | 1080.98
313.15 K, m1 = 0.01325 | 1081.11
313.15 K, m1 = 0.01542 | 1081.23
313.15 K, m1 = 0.01934 | 1081.43
313.15 K, m1 = 0.02264 | 1081.6
313.15 K, m1 = 0.02575 | 1081.76
313.15 K, m1 = 0.02845 | 1081.9
313.15 K, m1 = 0.03154 | 1082.06

C[S+](C)[O-] [dimethyl sulfoxide] + CCCCCCCCCCn1cc[n+](C)c1.[Br-]
[1], m2 = 0
Conditions | mass density [kg/m3]
293.15 K | 1100.22
303.15 K | 1090.37
308.15 K | 1085.42
313.15 K | 1080.45

C[S+](C)[O-] [dimethyl sulfoxide] + CCCCCCCCCCCCn1cc[n+](C)c1.[Br-]
[1], m2 = 0
Conditions | mass density [kg/m3]
293.15 K | 1100.22
303.15 K | 1090.38
308.15 K | 1085.41
313.15 K | 1080.47
